By Ki is commonly meant a measure of affinity in units of concentration, obtained from inhibition or displacement. A higher Ki goes with a looser hold on the target.

The experiment deals with Cysteinyl leukotriene receptor 1 (Cavia porcellus). In words: In vitro binding affinity against Cysteinyl leukotriene D4 receptor from guinea pig lung membrane.

`CCCC(CCc1nnn[nH]1)Cc1ccc(OCc2ccc3ccccc3n2)cc1` (stereo unspecified) gave a Ki of 11 nM.

(Values after BindingDB's records for doi:10.1021/jm00172a024 (Rorer Central Research, 1990).)
